Measured values published in patent publication US20090221559A1 (priority 2005, published 2009).
Read-outs that look alike come from different tables or passages of the source.

Key:
[1] = molecular target: T1, HCV NS5B polymerase (His-tagged, C-terminal 21 amino acid deleted NS5B, HC-J4) (Hepatitis C virus genotype 1b, UniProt O92972); test: NS5b polymerase assay (biochemical RdRp assay, 3H-GTP incorporation, SPA beads); set-up: species or system HCV genotype 1b
T1 construct: The cDNA encoding NS5B amino acid 1-570 (HC-J4, genotype 1b); His tag (His6, from pET-21b) (C); made in house; host or cells: E. coli BL21 (DE3)
Method in brief: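 His-tagged C-terminal-21-aa-deleted NS5B (genotype 1b, HC-J4) at 200 nM was preincubated 15 min at RT with compound on 5′-biotinylated oligo(rG13)/poly(rC) template/primer before NTPs. Reaction with 600 nM GTP plus 0.1 μCi 3H-GTP and 5 mM MgCl2 in Tris pH 7.5 ran 2 h at 25 °C. Stopped with EDTA/SPA beads for incorporation counting.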

[2] = tested on: HCV replicon RNA replication in Huh-7 luc/neo (Huh-Luc) cells; test: HCV replicon assay (stable replicon cell reporter assay, luciferase read-out); format: cell-based, HCV type 1b
Method in brief: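 Huh-7 cells stably carry a bicistronic HCV 1b NS3-NS5B subgenomic replicon with firefly luciferase and neo markers. Cells were plated with compound across a concentration range and incubated three days. Replication was measured as luciferase activity to give dose-response curves.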

[3] = NS5B Polymerase Assay IC50, 200 nM enzyme, 3H-GTP incorporation, 2 h at 25° C.
[4] = Hepatitis C virus, Huh-7, 72 h, read-out: Replicon Assay EC50, Huh-Luc cells, three days incubation, luciferase activity
[5] = 200 nM enzyme, 3H-GTP incorporation, 2 h at 25° C., read-out: NS5B Polymerase Assay IC50
[6] = Huh-Luc cells, three days incubation, luciferase activity, read-out: Replicon Assay EC50
[7] = NS5B Polymerase Assay IC50 (μM)
[8] = Hepatitis C virus, Huh-7, 72 h, read-out: Replicon Assay EC50 (μM), Huh-Luc cells, incubation of three days, luciferase activity

T1 sequence (O92972 2417-3000, looked up, stated change not applied): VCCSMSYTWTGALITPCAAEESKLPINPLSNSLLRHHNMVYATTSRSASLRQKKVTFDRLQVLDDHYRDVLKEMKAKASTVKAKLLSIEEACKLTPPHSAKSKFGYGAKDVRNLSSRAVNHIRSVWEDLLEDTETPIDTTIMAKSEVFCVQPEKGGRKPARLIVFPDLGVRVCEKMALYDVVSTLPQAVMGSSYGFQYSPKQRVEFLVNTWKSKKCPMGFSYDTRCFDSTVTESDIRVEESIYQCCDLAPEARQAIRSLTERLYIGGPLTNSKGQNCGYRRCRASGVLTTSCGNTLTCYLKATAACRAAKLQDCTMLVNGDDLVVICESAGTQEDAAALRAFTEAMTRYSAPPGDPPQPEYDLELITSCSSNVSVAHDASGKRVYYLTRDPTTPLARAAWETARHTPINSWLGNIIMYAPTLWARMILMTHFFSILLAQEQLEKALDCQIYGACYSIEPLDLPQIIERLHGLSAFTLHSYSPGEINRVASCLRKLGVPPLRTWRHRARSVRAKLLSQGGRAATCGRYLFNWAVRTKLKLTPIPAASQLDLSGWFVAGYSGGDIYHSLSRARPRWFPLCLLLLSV

Row | Compound | IC50 [1, 3] [µM] | EC50 [2, 4] [µM] | IC50 [1, 7] [µM] | EC50 [2, 8] [µM] | also measured
1 | CC(=O)N1c2ccccc2NC2=C(C(=O)CC(C)(C)C2)C1c1cccc(Oc2ccccc2Br)c1 (stereo not drawn) [compound 149, 10-acetyl-11-[3-(2-bromophenoxy)phenyl]-3,3-dimethyl-2,3,4,5,10,11-hexahydro-1H-dibenzo[b,e][1,4]diazepin-1-one] | 30.4 | 1.78 |  |  | 
2 | COc1ccc(C2CC(=O)C3=C(C2)Nc2ccccc2N(C(C)=O)C3c2ccco2)cc1 (stereo not drawn) [compound 298] |  |  |  |  | IC50 [1, 5]: > 42.7 µM; EC50 [2, 6]: > 32 µM
3 | CCOc1cc(C2Nc3ccccc3NC3=C2C(=O)CC(c2ccc(OC)cc2)C3)cc(Br)c1O (stereo not drawn) [compound 378] |  |  | > 42.7 | 5.94 | 
4 | CC1(C)CC(=O)C2=C(C1)Nc1ccccc1NC2c1ccc(OC(F)(F)F)cc1 (stereo not drawn) [compound 434, 11-(4-trifluoromethyloxyphenyl)-3,3-dimethyl-2,3,4,5,10,11-hexahydro-1H-dibenzo[b,e][1,4]diazepin-1-one] |  |  | > 133 | 22.9 | 
5 | CCCN1c2ccccc2NC2=C(C(=O)CC(C)(C)C2)C1c1ccc(Cl)cc1Cl (stereo not drawn) [compound 509, 11-(2,4-Dichlorophenyl)-2,3,4,5,10,11-hexahydro-3,3-dimethyl-10-propyl-1H-dibenzo[b,e][1,4]diazepin-1-one] |  |  | > 42.7 | 0.894 | 
6 | CC1(C)CC(=O)C2=C(C1)Nc1ccccc1N(C(=O)Cc1ccc(Cl)cc1)C2c1cccnc1 (stereo not drawn) [compound 247] | > 33.3 | 17.3 |  |  | 
7 | O=C1C[C@@H](c2ccccc2OCc2ccccc2)CC2=C1C(c1cccc(OC(=O)c3ccc(Cl)cc3)c1)Nc1ccccc1N2 (single isomer, unassigned) [compound 512, 11-[3-(4-Chlorobenzoyloxy)phenyl]-3-(2-benzyloxyphenyl)-2,3,4,5,10,11-hexahydro-dibenzo[b,e][1,4]diazepin-1-one] |  |  | 84.5 | 8.42 | 
8 | COc1ccc(OC)c(C2C3=C(CC(C)(C)CC3=O)Nc3ccccc3N2C(=O)C(F)(F)F)c1Br (stereo not drawn) [compound 96] | > 42.7 | 11.4 |  |  | 
9 | CC(=O)N1c2ccccc2NC2=C(C(=O)CC(c3ccccc3OCc3ccccc3)C2)C1C(Br)=Cc1ccccc1 (stereo not drawn) [compound 300] |  |  |  |  | IC50 [1, 5]: > 133 µM; EC50 [2, 6]: 0.706 µM
10 | O=C1CC(c2cccc([N+](=O)[O-])c2)CC2=C1C(c1ccco1)N(C(=O)C(F)(F)F)c1ccccc1N2 (stereo not drawn) [compound 296] | > 42.7 | 18.3 |  |  | 
11 | CCCCOc1ccc(C2C3=C(CC(C)(C)CC3=O)Nc3ccccc3N2C(=O)C(C)C)cc1 (stereo not drawn) [compound 14] | > 33.3 | 10.6 |  |  | 
12 | CCOc1cccc(C2Nc3ccccc3NC3=C2C(=O)CC(c2ccc(Cl)cc2)C3)c1 (stereo not drawn) [compound 379] |  |  | > 42.7 | 6.79 | 
13 | Cc1ccc(C2Nc3ccccc3NC3=C2C(=O)CC(c2ccc(Cl)cc2)C3)cc1 (stereo not drawn) [compound 409] |  |  | > 33.3 | 14.9 | 
14 | CCN1c2ccccc2NC2=C(C(=O)CC(C)(C)C2)C1c1ccc(Cl)cc1Cl (stereo not drawn) [compound 508, 11-(2,4-dichlorophenyl)-10-ethyl-2,3,4,5,10,11-hexahydro-3,3-dimethyl1H-dibenzo[b,e][1,4]diazepin-1-one] |  |  | > 42.7 | 1.37 | 
15 | CC(=O)N1c2ccccc2NC2=C(C(=O)CC(C)(C)C2)C1c1cccnc1 (stereo not drawn) [compound 258] | > 42.7 | > 32 |  |  | 
16 | CCCOc1ccccc1C1CC(=O)C2=C(C1)Nc1ccccc1N(C(=O)CC)C2c1ccc(OC)cc1 (stereo not drawn) [compound 220] |  |  |  |  | IC50 [1, 5]: > 42.7 µM; EC50 [2, 6]: 3.08 µM
17 | Cc1ccc(C2CC(=O)C3=C(C2)Nc2ccccc2N(C(=O)C(F)(F)F)C3c2ccccc2Cl)cc1 (stereo not drawn) [compound 169] |  |  |  |  | IC50 [1, 5]: > 33.3 µM; EC50 [2, 6]: 17.7 µM
18 | COc1ccc(C2CC(=O)C3=C(C2)Nc2ccccc2NC3c2ccccc2Br)cc1 (stereo not drawn) [compound 390] |  |  | > 42.7 | 9.07 | 
19 | COc1ccc(C2CC(=O)C3=C(C2)Nc2ccccc2NC3c2ccc(OCc3ccccc3)c(OC)c2)cc1 (stereo not drawn) [compound 385] |  |  | > 42.7 | 3.54 | 
20 | CCC(=O)N1c2ccccc2NC2=C(C(=O)CC(C)(C)C2)C1c1cccc(Cl)c1Cl (stereo not drawn) [compound 40] | > 42.7 | > 24.7 |  |  | 
21 | Cc1ccc(C2Nc3ccccc3NC3=C2C(=O)CC(c2ccccc2)C3)cc1[N+](=O)[O-] (stereo not drawn) [compound 358] |  |  | > 42.7 | 20.4 | 
22 | CC1(C)CC(=O)C2=C(C1)Nc1ccccc1N(C(=O)c1ccccc1F)C2c1ccccc1OCc1ccccc1 (stereo not drawn) [compound 27] | > 42.7 | 20.7 |  |  | 
23 | CCCCCC(=O)N1c2ccccc2NC2=C(C(=O)CC(c3ccc(OC)c(OC)c3)C2)C1c1cccc([N+](=O)[O-])c1 (mixture of isomers) [compound 181] |  |  |  |  | IC50 [1, 5]: > 33.3 µM; EC50 [2, 6]: 2.41 µM

Row | Compound | IC50 [1, 3] [µM] | EC50 [2, 4] [µM] | IC50 [1, 7] [µM] | EC50 [2, 8] [µM] | also measured
24 | 3-(2-benzyloxyphenyl)-11-[3-(4-chlorobenzoyloxy)phenyl]-2,3,4,5,10,11-hexahydro-dibenzo[b,e][1,4]diazepin-1-one [compound 513] |  |  |  |  | IC50 ([1]; read-out: NS5B Polymerase Assay IC50): 70.1 µM; EC50 ([2]; Huh-Luc cells, incubation of three days, luciferase activity, read-out: Replicon Assay EC50): 3.67 µM
25 | CCCCCC(=O)N1c2ccccc2NC2=C(C(=O)CC(C)(C)C2)C1c1ccccc1OCc1ccccc1 (stereo not drawn) [compound 6] | > 42.7 | 7.32 |  |  | 
26 | CCN(CC)c1ccc(C2CC(=O)C3=C(C2)Nc2ccccc2N(C(=O)c2ccccc2)C3c2ccco2)cc1 (stereo not drawn) [compound 295] | > 42.7 | 21.6 |  |  | 
27 | CCOc1ccccc1C1C2=C(CC(C)(C)CC2=O)Nc2ccccc2N1C(C)=O (stereo not drawn) [compound 125] | > 42.7 | > 32 |  |  | 
28 | COc1ccc(C2CC(=O)C3=C(C2)Nc2ccccc2NC3c2cc(Br)ccc2OC)cc1OC (stereo not drawn) [compound 404] |  |  | > 42.7 | 3.24 | 
29 | CC(=O)N1c2ccccc2NC2=C(C(=O)CC(C)(C)C2)C1c1ccc(OCc2ccccc2)cc1OCc1ccccc1 (stereo not drawn) [compound 144, 10-acetyl-11-[2,4-dibenzyloxyphenyl]-3,3-dimethyl-2,3,4,5,10,11-hexahydro-1H-dibenzo[b,e][1,4]diazepin-1-one] | 23 | 3.1 |  |  | 
30 | CC1(C)CC(=O)C2=C(C1)Nc1ccccc1NC2c1c(Cl)cc(OCc2ccccc2)cc1Cl (stereo not drawn) [compound 447, 11-(4-benzyloxy-2,6-dichlorophenyl)-3,3-dimethyl-2,3,4,5,10,11-hexahydro-1H-dibenzo[b,e][1,4]diazepin-1-one] |  |  | > 133 | 2.52 | 
31 | COc1ccc([C@@H]2CC(=O)C3=C(C2)Nc2ccccc2N[C@H]3c2ccc(C)s2)cc1 [compound 490] |  |  | > 42.7 | 24.9 | 
32 | COc1ccc([C@@H]2CC(=O)C3=C(C2)Nc2ccccc2N[C@H]3c2cc3c(cc2[N+](=O)[O-])OCO3)cc1OC [compound 487] |  |  | > 42.7 | 3.15 | 
33 | CC1(C)CC(=O)C2=C(C1)Nc1ccccc1N(C(=O)c1ccccc1)C2c1ccc(F)cc1 (stereo not drawn) [compound 77] | > 42.7 | 21.2 |  |  | 
34 | O=C1CC(c2ccccc2)CC2=C1C(c1ccc(Cl)cc1)Nc1ccccc1N2 (stereo not drawn) [compound 325] |  |  | > 42.6 | 16.3 | 
35 | Cc1ccc(C2C3=C(CC(c4ccc(Cl)cc4)CC3=O)Nc3ccccc3N2C(=O)C(F)(F)F)cc1 (stereo not drawn) [compound 160] |  |  |  |  | IC50 [1, 5]: > 33.3 µM; EC50 [2, 6]: > 25 µM
36 | COC(=O)c1ccc(C2Nc3ccccc3NC3=C2C(=O)CC(c2ccccc2)C3)cc1 (stereo not drawn) [compound 374] |  |  | > 42.7 | 10.1 | 
37 | O=C1CC(c2ccc(Cl)cc2)CC2=C1C(c1cccc([N+](=O)[O-])c1)Nc1ccccc1N2 (stereo not drawn) [compound 337] |  |  | > 42.7 | 17.5 | 
38 | CC(=O)N1c2ccccc2NC2=C(C(=O)CC(C)(C)C2)C1c1ccc(OCc2ccccc2Cl)cc1 (stereo not drawn) [compound 148, 10-acetyl-11-[4-(2-chlorobenzyloxy)phenyl]-3,3-dimethyl-2,3,4,5,10,11-hexahydro-1H-dibenzo[b,e][1,4]diazepin-1-one] | 83.7 | 3.23 |  |  | 
39 | COc1ccc(C2Nc3ccccc3NC3=C2C(=O)CC(c2ccc(Cl)cc2)C3)cc1OC (stereo not drawn) [compound 352] |  |  | > 42.7 | 9.61 | 
40 | COc1ccc(C2Nc3ccc(C(=O)c4ccccc4)cc3NC3=C2C(=O)CC(C)(C)C3)cc1OC (stereo not drawn) [compound 453] |  |  | > 42.7 | 19.2 | 
41 | CC(C)CC(=O)N1c2ccccc2NC2=C(C(=O)CC(C)(C)C2)C1c1ccc(Cl)c(Cl)c1 (stereo not drawn) [compound 78] | > 33.3 | 22.2 |  |  | 
42 | CC(=O)N1c2ccccc2NC2=C(C(=O)CC(C)(C)C2)C1c1cc(Cl)c(OCc2ccccc2)c(Cl)c1 (stereo not drawn) [compound 143, 10-acetyl-11-[4-benzyloxy-3,5-dichlorophenyl]-3,3-dimethyl-2,3,4,5,10,11-hexahydro-1H-dibenzo[b,e][1,4]diazepin-1-one] | 16 | 6.3 |  |  | 
43 | O=C1C[C@@H](c2ccc(Cl)cc2)CC2=C1[C@H](c1c[nH]c3ccccc13)Nc1ccccc1N2 [compound 482] |  |  | > 42.7 | 27 | 
44 | CC(=O)N1c2cccc(C#N)c2NC2=C(C(=O)CC(C)(C)C2)C1c1ccc(Cl)cc1Cl (stereo not drawn) [compound 316] | 6.97 | 15.4 |  |  | 
45 | CC(=O)N1c2ccccc2NC2=C(C(=O)CC(C)(C)C2)C1c1ccc(OC(C)C)cc1 (stereo not drawn) [compound 114] | > 42.7 | > 32 |  |  | 
